Patent publication US9877927B2, “Inhibitor of odor caused by Furaneol” (Kao Corporation, priority 2013, dated 2018)

Legend:
olfactory receptor OR5K1 [1] = target: T1, olfactory receptor OR5K1 (Homo sapiens, UniProt Q8NHB7); test: Antagonistic activity against the response of OR5K1 to Furaneol (luciferase assay); type: cell-based; conditions: Furaneol 3 mM, test substance 100 μM, HEK293 cells expressing OR5K1; vs Furaneol alone; read-out: Rate of inhibition of the response of OR5K1 to Furaneol
T1 construct: expressed in transfected cells; host or cells: HEK293
T1 sequence (Q8NHB7 1-308): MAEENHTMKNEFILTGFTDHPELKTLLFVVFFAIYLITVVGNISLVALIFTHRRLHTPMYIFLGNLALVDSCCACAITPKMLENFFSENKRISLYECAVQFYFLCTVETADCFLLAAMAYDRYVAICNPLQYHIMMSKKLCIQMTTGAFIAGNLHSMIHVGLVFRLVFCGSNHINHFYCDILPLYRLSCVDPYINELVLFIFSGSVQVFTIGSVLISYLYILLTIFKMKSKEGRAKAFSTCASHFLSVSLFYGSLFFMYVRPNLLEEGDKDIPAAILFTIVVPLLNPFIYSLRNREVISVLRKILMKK
Experimental: Furaneol (3 mM) and each test substance (100 μM) were added to HEK293 cells allowed to express the olfactory receptor OR5K1 by the same procedures as in Example 2. The response of the olfactory receptor was measured to evaluate change in receptor response caused by the addition of the test substance.
The rate of inhibition of the receptor response by the test substance was calculated as follows: firefly luciferase-derived luminescence intensity (Y) in the olfactory receptor OR5K1-expressing cells without Furaneol stimulation was subtracted from luminescence intensity (X) induced by stimulation with Furaneol alone to determine receptor activity (X−Y) based on the stimulation with Furaneol alone. Likewise, the luminescence intensity (Y) in the cells without Furaneol stimulation was subtracted from luminescence intensity (Z) induced by stimulation with the mixture of Furaneol and the test substance to determine receptor activity (Z−Y) in the presence of the test substance. The rate of reduction in the receptor activity (Z−Y) in the presence of the test substance with respect to the receptor activity (X−Y) based on the stimulation with Furaneol alone was calculated according to an expression shown below to determine the rate of inhibition of the receptor response by the test substance. In this assay, a plurality of independent duplicate experiments were performed. An average of the experiments in each run was obtained. Rate of inhibition (%)={1−(Z−Y)/(X−Y)}×100

olfactory receptor OR5K1 [2] = target: T1, olfactory receptor OR5K1; test: Luciferase reporter gene assay, response of olfactory receptor to Furaneol; type: cell-based
Excerpt: On the basis of sequence information registered in GenBank, each human olfactory receptor gene was cloned by PCR with Human Genomic DNA Female (G1521: Promega Corp.) as a template. Each gene thus amplified by PCR was inserted into a pENTR vector (Invitrogen Corp.) according to the manual. A NotI-AscI site present on the pENTR vector was recombined into a NotI-AscI site prepared downstream of a Flag-Rho tag sequence on a pME18S vector.
A gene (GenBank GI: 50234917) encoding a human receptor transporting protein, RTP1S was inserted into the EcoRI-XhoI site of the pME18S vector.
HEK293 cells expressing each of 400 types of human olfactory receptors were prepared. […]
The olfactory receptors expressed on the HEK293 cells are conjugated with intracellular Gas to activate adenylate cyclase, thereby increasing intracellular cAMP levels. In this study, their responses to Furaneol were measured using luciferase reporter gene assay which involved monitoring increase in intracellular cAMP level as luminescence intensity derived from a firefly luciferase gene (fluc2P-CRE-hygro). […]
A medium was removed from the cultures prepared in the preceding paragraph 3). […] The luciferase activity was measured using Dual-Glo™ luciferase assay system (Promega Corp.) according to the instruction manual of the product. […]

Concentration dependence of OR5K1 response to Furaneol (olfactory receptor OR5K1 [2]; Furaneol 0, 3, 10, 30, 100, 300, 1000, 3000 μM, OR5K1 with human RTP1S in HEK293 cells)	SMILES	inhibition at 100 µM (olfactory receptor OR5K1 [1]) [%]	Response of olfactory receptors to Furaneol (fold increase in luminescence) (olfactory receptor OR5K1 [2]; Furaneol 3 mM, 400 types of human olfactory receptors in HEK293 cells)
–	CC(=O)O[C@]1(C)CC[C@@]23C[C@@H]1C(C)(C)[C@@H]2CC[C@H]3C [Cedryl acetate]	≥ 50	–
concentration-dependent response	CC1=C(O)C(=O)C(C)O1 (centres unmarked) [Furaneol, 2,5-dimethyl-4-hydroxy-3(2H)-furanone]	–	only the olfactory receptor OR5K1 exhibited a response
–	CC(=O)c1cc2c(cc1C)C(C)(C)C(C)CC2(C)C [Tonalid(R), 1-(5,6,7,8-tetrahydro-3,5,5,6,8,8-hexamethyl-2-naphthalenyl)-ethanone]	≥ 75	–
–	CC(C)=CCCC(C)=CC=O [Citral]	≥ 75	–
